One molecule from publication PMC6481345, “A novel anti-melanoma SRC-family kinase inhibitor” (Oncotarget, 2019) can be followed below.

The subject of one assay is YUSOC melanoma cells. As to the kind of experiment: CellTiter-Glo Luminescent Cell Viability Assay. Type of assay: cell-based, human. The note with it: RAF1 T491I, NF1 null/RAC1 P29S. The protocol: (§1) The melanoma cells were grown in OptiMEM (Invitrogen, Carlsbad, CA) supplemented with 5% fetal calf serum and antibiotics. The normal human melanocytes (NBMEL) were grown in medium supplemented with bFGF, IBMX and dbcAMP [32]. Most of the Yale melanoma cell lines were characterized by next-generation sequencing (Supplementary Table 2).
(§2) Cell proliferation was measured with the CellTiter-Glo® Luminescent Cell Viability Assay (Promega Corporation, Madison, WI). Melanoma cells were seeded in 96-well plates in triplicate or quadruplet wells, with increasing concentrations of kinase inhibitors for 72 hrs. The rate of proliferation was also tested after knockdown of different SRC-family kinases (SFK) with hairpin lentivirus shRNA as indicated. […] The statistical significance of synergism of response to drug combinations was evaluated by following Chou and Talalay algorithm. See also details in Supplementary Material.
Background: ATP-based viability assays read luminescence as a measure of living cells.

The test system of another assay is YUGASP melanoma cells. The assay is described as follows: CellTiter-Glo Luminescent Cell Viability Assay. The note with it: growth response. Type of assay: cell-based, human. How it is done:
as §1, §2

Another assay relates to 501 mel melanoma cells. As to the kind of experiment: CellTiter-Glo Luminescent Cell Viability Assay. Type of assay: cell-based, human. Conditions: for IC50: Homo sapiens. How it is done:
as §1, §2

In the next assay the test system is YUSIK melanoma cells. As to the kind of experiment: CellTiter-Glo Luminescent Cell Viability Assay. Type of assay: cell-based, human. How it is done: as §1, §2
The target in assay [1] is native kinases in YUSIV and YUSIK lysates. The assay is described as follows: KiNativ in situ kinase profiling (summary over kinases). Type of assay: binding, human. The note with it: mTOR, EGFR, LCK and MEK1; read-out: IC50, range over kinases. The protocol:
(§3) The effect of SAB298 on a panel of 36 recombinant kinases, was screed with the radioisotope filter binding assay employing 10 concentrations of the compound with 10 µM ATP (Reaction Biology Corporation, Malvern, PA). In addition, we tested the endogenous kinome response to SAB298 (0.05 µM, 0.5 µM and 5 µM) in lysates from two melanoma cell lines (YUSIV and YUSIK) employing the KiNativ® platform (ActivX Biosciences Inc., La Jolla, CA). KiNativ® is a robust, high performance mass spectrometry (LC-MS^2) assay that uses biotinylated probes to measure relevant changes in the affinity to the ATP-binding sites of 205 native kinases as a function of cellular context. We also validated SAB298 effect on the activity of SRC-family kinases by probing for phosphorylated Y416, the marker of activated SFKs, with anti-IEDNEpYTAR antibodies (also known as Y419, #2101, Cell Signaling Technology, Beverly, MA). In some cases the cells were incubated overnight with 20 µM proteasome inhibitor MG-132 (CAS 133407-82-6, Millipore Sigma, Burlington, MA) to rescue degradation.

A further assay relates to pp38 T180/Y182. The assay is described as follows: Western blot, phospho-p38. Type of assay: cell-based, human. The note with it: YUSIV melanoma cells. The protocol:
We used standard techniques to identify changes in intracellular signaling in response to various treatments. Briefly, melanoma cells were incubated with test compounds, using DMSO as a control, collected by scraping on ice, and lysed in RIPA buffer supplemented with protease and phosphatase inhibitors (MA #78428, and #78425, respectively, Thermo Fisher Scientific, Waltham, MA). Protein concentrations were measured with the BioRad kit (Bio-Rad Laboratories, Hercules, CA), SDS sample buffer was added, extracts were heated at 95°C, sonicated and centrifuged. Cell extracts (20 µg/lane) were fractionated in 3%–8% or 4–12 % tris-acetate gel (NP0006, NuPAGE Life Technologies). […]

Another assay concerns the target YES1 (Homo sapiens, UniProt P07947). As to the kind of experiment: KiNativ in situ kinase profiling in melanoma cell lysates. Type of assay: binding. On the set-up: the endogenous kinome response to SAB298 (0.05 µM, 0.5 µM and 5 µM) in lysates from two melanoma cell lines; host or cells: YUSIV melanoma cell lysate (not present in YUSIK). The note with it: YES1 in YUSIV lysate; 3-point dose response. The protocol: as §3

Like-named read-outs stand apart in the source and are kept apart here.

Sequence of YES1 (P07947 whole entry): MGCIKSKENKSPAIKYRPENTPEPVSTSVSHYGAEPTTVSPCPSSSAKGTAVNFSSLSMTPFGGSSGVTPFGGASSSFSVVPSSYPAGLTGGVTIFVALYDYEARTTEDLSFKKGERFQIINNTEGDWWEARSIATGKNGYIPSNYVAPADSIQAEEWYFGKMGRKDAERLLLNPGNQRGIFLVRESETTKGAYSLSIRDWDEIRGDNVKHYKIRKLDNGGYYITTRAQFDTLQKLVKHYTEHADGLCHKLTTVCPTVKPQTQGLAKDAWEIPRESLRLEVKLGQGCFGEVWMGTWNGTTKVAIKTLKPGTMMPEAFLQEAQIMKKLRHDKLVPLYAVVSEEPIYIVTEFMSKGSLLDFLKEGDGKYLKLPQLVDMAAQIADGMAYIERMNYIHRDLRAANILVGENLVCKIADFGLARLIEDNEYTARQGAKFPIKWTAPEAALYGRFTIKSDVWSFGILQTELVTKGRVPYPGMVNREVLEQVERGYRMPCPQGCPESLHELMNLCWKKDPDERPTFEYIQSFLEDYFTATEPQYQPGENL

As for `Nc1ncnc2c1c(-c1ccc(Oc3ccccc3)cc1)nn2C[C@@H]1SSC[C@@H]1O` [SAB298, (3S, 4S)-3-((4-amino-3-(4-phenoxyphenyl)-1H-pyrazolo[3,4-d]pyrimidin-1-yl)methyl)-1,2-dithiolan-4-ol], the IC50 with YUSOC melanoma cells (Homo sapiens, 72 h) came out at 154 nM; in the assay with YUSOC melanoma cells (72 hrs) it was 157 nM; in the assay with 501 mel melanoma cells (501 mel BRAF V600E, Variation 2 (0 effect omitted), read-out: Dm (dose for median effect, median-effect equation)), 3860 nM; in the assay with 501 mel melanoma cells (501 mel BRAFV600E, Variation 1 (0 effect coded 1E-6), read-out: Dm (dose for median effect, median-effect equation)), 7150 nM; with 501 mel melanoma cells (72 h, 501 mel, BRAF V600E, cell viability, 72 hrs, read-out: IC50) it was 551 nM; in the assay with YUSIK melanoma cells (Homo sapiens, 72 h, YUSIK, BRAF V600E, cell viability, 72 hrs, read-out: IC50) it was 129 nM. The IC50 in the assay on YUSIK melanoma cells (Homo sapiens, YUSIK BRAF V600E, Variation 2 (0 effect omitted), read-out: Dm (dose for median effect, median-effect equation)) is 155 nM; with YUSIK melanoma cells (Homo sapiens, YUSIK BRAFV600E, Variation 1 (0 effect coded 1E-6), read-out: Dm (dose for median effect, median-effect equation)), 864 nM; in the assay with YUSIK melanoma cells (YUSIK, BRAF V600E, cell viability, 72 hrs, read-out: IC50) it was 141 nM; in assay [1], 1300 to 2900 nM; on YES1, less than 10 nM. Moreover, the AUC1 was 119 with YUGASP melanoma cells; 37 in the assay with 501 mel melanoma cells (501 mel, growth response); 540 in the assay with YUSIK melanoma cells (YUSIK, growth response). The AUC2 in the assay on YUGASP melanoma cells was 103; in the assay with 501 mel melanoma cells (501 mel, growth response), 133; in the assay on YUSIK melanoma cells (YUSIK, growth response) it was 23. In addition, the “pp38 T180/Y182 level” value in the assay with pp38 T180/Y182 is given as “induced p38 T180/Y182 phosphorylation”.
